Literature values, collected in patent US10172922B2, “Rapid-acting insulin compositions” (Eli Lilly and Company, priority 2014, dated 2019).

Settings: on a molar basis

Substance: 28^B-L-Lysine-29^B-L-proline human insulin [Insulin lispro]
- Potency relative to human insulin: equipotent to human insulin on a molar basis
